Experimental data published in patent US8222416B2, “Azaindole glucokinase activators” (Hoffmann-La Roche Inc., priority 2009, dated 2012).
Values belong to the compound of their own block, whether it stands above or below them.

Tests used:
[1] = molecular target: T1, Recombinant human liver GK1 (GST-GK) (Homo sapiens, UniProt P35557); experiment: In vitro glucokinase activity assay (G6PDH-coupled, NADH, OD340); assay type: biochemical; conditions: concentration of activator that produced a 50% increase in the activity of GK; 5 mM D-glucose, 30° C.
T1 construct: made in house; host or cells: E. coli
T1 sequence (P35557 1-466 isoform P35557-2): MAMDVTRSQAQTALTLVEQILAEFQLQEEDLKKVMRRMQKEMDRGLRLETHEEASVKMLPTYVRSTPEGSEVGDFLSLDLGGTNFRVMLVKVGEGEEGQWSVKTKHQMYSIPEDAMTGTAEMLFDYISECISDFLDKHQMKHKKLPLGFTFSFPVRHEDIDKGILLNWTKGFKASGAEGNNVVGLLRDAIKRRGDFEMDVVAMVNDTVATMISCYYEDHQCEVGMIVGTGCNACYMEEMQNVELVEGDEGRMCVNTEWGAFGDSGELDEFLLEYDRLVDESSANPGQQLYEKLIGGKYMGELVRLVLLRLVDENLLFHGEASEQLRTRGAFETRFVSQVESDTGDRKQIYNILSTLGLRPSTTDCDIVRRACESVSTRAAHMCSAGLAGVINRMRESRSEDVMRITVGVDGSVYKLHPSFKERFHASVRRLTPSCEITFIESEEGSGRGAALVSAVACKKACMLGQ
How it was run: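 GST-fused human liver GK1 from E. coli, run at 30° C. in pH 7.1 HEPES with 5 mM glucose, 1 mM ATP and 10% DMSO, coupled via G6PDH to NADH. OD340 rate measured after enzyme start; SC1.5 is the activator concentration raising activity 50% over DMSO control.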

[2] = tested on: C57BL/6J mice; experiment: Glucokinase activator in vivo screen, blood glucose after oral gavage in lean and diet induced obese mice; conditions: Mus musculus, C57B6 mice, read-out: % gluc lowering @ 2 H; for change in vivo at 25 mg/kg: vs control at 2 hours post 25 mg/kg oral dose; for change in vivo at 50 mg/kg: vs control at 2 hours post 50 mg/kg oral dose
Experimental: Glucokinase Activator in vivo Screen Protocol in Lean and Diet Induced Obese Mice: Lean or Diet-Induced Obese (DIO) C57BL/6J mice were orally dosed via gavage with Glucokinase (GK) activator following a two hour fasting period. Blood glucose determinations were made at various (e.g. 0, 1, 2, 4 and 8 hours post-oral gavage) times during the study.
C57Bl/6J mice were obtained from Jackson Laboratory (Bar Harbor, Me.) and were maintained in a light-dark cycle with lights on from 0600-1800 hr. For studies in lean mice, the mice were received at age ten weeks and given ad libitum access to control diet (LabDiet 5001 chow, PMI Nutrition, Brentwood, Mo.), and were at least age 11 weeks at the time of study. For studies in the DIO model, the mice were received at age five weeks and given ad libitum access to Bio-Sery F3282 High Fat Diet (Frenchtown, N.J.), and were at least age 16 weeks at the time of study. The experiments were conducted during the light phase of the light-dark cycle. Mice (n=6) are weighed and fasted for a two hour period prior to oral treatment. GK activators are formulated in Gelucire vehicle (Ethanol:Gelucire44/14:PEG400q.s. 4:66:30 v/w/v. For studies in lean mice, the mice were dosed orally with 5.04 per gram of body weight (i.e. 5 ml/kg×10.0 mg/ml formulation to equal a 50 mg/kg dose). For studies in DIO mice, the mice were dosed orally with 5.04 per gram of body weight (i.e. 5.0 ml/kg×5 mg/ml formulation to equal a 25 mg/kg dose). Immediately prior to dosing, a pre-dose (time zero) blood glucose reading was acquired by snipping off a small portion of the animal's tail and collecting […] blood into a heparinized capillary tube for analysis. Following GK activator administration, additional blood glucose readings were taken at various time points post dose from the same tail wound. Results were interpreted by comparing the mean blood glucose values of vehicle treated mice with GK activator treated mice over the study period.
The Table below provides data for % glucose lowering of a representative number of compounds of the present invention vs control at 2 hours post 25 or 50 mg/kg dose in C57B6 mice: […]

SMILES: CC(C)Oc1cnc2[nH]c([C@H](CC3CCCC3)c3ccc(S(C)(=O)=O)cc3)cc2c1 (single isomer, unassigned) [Example 19]
SC1.5 [1]: 0.414 µM | change in vivo at 25 mg/kg [2]: -14.8%

SMILES: COc1cnc2[nH]c(C(CC3CCCO3)c3ccc(S(C)(=O)=O)cc3)cc2c1 (single isomer, unassigned) [Example 22, 2-[1-(4-Methanesulfonyl-phenyl)-2-(tetrahydro-furan-2-yl)-ethyl]-5-methoxy-1H-pyrrolo[2,3-b]pyridine]
SC1.5 [1]: 2.5 µM | change in vivo at 25 mg/kg [2]: -6.3%

SMILES: COc1cnc2[nH]c([C@H](CC3CCOCC3)c3ccc(S(C)(=O)=O)cc3)cc2c1 (single isomer, unassigned) [Example 32]
SC1.5 [1]: 1.1 µM | change in vivo at 25 mg/kg [2]: -23.4%

SMILES: COc1cnc2[nH]c([C@H](CC3CCOCC3)c3ccc(C(F)(F)F)cc3)cc2c1 (single isomer, unassigned) [Example 34]
SC1.5 [1]: 0.958 µM | change in vivo at 25 mg/kg [2]: -10.7%

SMILES: COCc1cnc2[nH]c([C@H](CC3CCCC3)c3ccc(S(C)(=O)=O)cc3)cc2c1 (single isomer, unassigned) [Example 42]
SC1.5 [1]: 0.903 µM | change in vivo at 25 mg/kg [2]: -10.3%

SMILES: CS(=O)(=O)c1ccc(C(CC2CCCCO2)c2cc3cccnc3[nH]2)cc1 (single isomer, unassigned) [Example 60, 2-[1-(4-Methanesulfonyl-phenyl)-2-(tetrahydro-pyran-2-yl)-ethyl-]-1H-pyrrolo[2,3-b]pyridine]
SC1.5 [1]: 0.451 µM | change in vivo at 25 mg/kg [2]: -29.9%

SMILES: CS(=O)(=O)c1ccc([C@@H](CC2CCOCC2)c2cc3cccnc3[nH]2)cc1 (single isomer, unassigned) [Example 67]
SC1.5 [1]: 0.505 µM | change in vivo at 25 mg/kg [2]: -43.6%

SMILES: CC(C)(O)c1ccc([C@@H](CC2CCCC2)c2cc3cccnc3[nH]2)cc1 (single isomer, unassigned) [Example 82]
SC1.5 [1]: 0.647 µM | change in vivo at 25 mg/kg [2]: -42.7%

SMILES: CC(C)NC(=O)c1cnc2[nH]c(C(CC3CCCC3)c3ccc(S(C)(=O)=O)cc3)cc2c1 (stereo not drawn) [Example 3, 2-[2-Cyclopentyl-1-(4-methanesulfonyl-phenyl)-ethyl]-1H-pyrrolo[2,3-b]pyridin-5-carboxylic acid isopropylamide]
SC1.5 [1]: 1.9 µM | change in vivo at 50 mg/kg [2]: -5.6%

SMILES: CC(C)S(=O)(=O)c1ccc(C(CC2CCCC2)c2cc3cccnc3[nH]2)cc1 (stereo not drawn) [Example 69]
SC1.5 [1]: 0.387 µM | change in vivo at 50 mg/kg [2]: -40.3%

SMILES: CC(C)(O)c1ccc(C(CC2CCCC2)c2cc3cccnc3[nH]2)cc1F (stereo not drawn) [Example 95, 2-{4-[2-Cyclopentyl-1-(1H-pyrrolo[2,3-b]pyridin-2-yl)-ethyl]-2-fluoro-phenyl}-propan-2-ol]
SC1.5 [1]: 0.379 µM | change in vivo at 50 mg/kg [2]: -49.4%

Further lines, with some results ahead:

SC1.5 [1]: 0.05 µM
SMILES: CS(=O)(=O)c1ccc([C@@H](CC2CCCC2)c2cc3cc(F)cnc3[nH]2)cc1 (single isomer, unassigned) [Example 118]
change in vivo at 25 mg/kg [2]: -48.4%

SC1.5 [1]: 0.241 µM
SMILES: CC(C)(O)c1ccc([C@@H](CC2CCCC2)c2cc3cc(F)cnc3[nH]2)cc1 (single isomer, unassigned) [Example 120]
change in vivo at 25 mg/kg [2]: -52%

SC1.5 [1]: 0.21 µM
SMILES: CS(=O)(=O)c1ccc([C@@H](CC2CCOCC2)c2cc3cc(F)cnc3[nH]2)cc1 (single isomer, unassigned) [Example 124]
change in vivo at 25 mg/kg [2]: -35%

SC1.5 [1]: 2.1 µM
SMILES: CS(=O)(=O)c1ccc(C(CC2CCCC2)c2cc3cccnc3[nH]2)cn1 (stereo not drawn) [Example 109, 2-[2-Cyclopentyl-1-(6-methanesulfonyl-pyridin-3-yl)-ethyl]-1H-pyrrolo[2,3-b]pyridine]
change in vivo at 50 mg/kg [2]: -31.6%

SC1.5 [1]: 0.051 µM
SMILES: CS(=O)(=O)c1ccc(/C(=C\C2CCOCC2)c2cc3cc(F)cnc3[nH]2)cc1 [Example 122, 5-Fluoro-2-[(E)-1-(4-methanesulfonyl-phenyl)-2-(tetrahydro-pyran-4-yl)-vinyl]-1H-pyrrolo[2,3-b]pyridine]
change in vivo at 25 mg/kg [2]: -59.4%

SC1.5 [1]: 0.236 µM
SMILES: CS(=O)(=O)c1ccc(C(CC2CCCC2)c2cc3cccnc3[nH]2)cc1 (stereo not drawn) [Example 138, 2-[2-Cyclopentyl-1-(4-methanesulfonyl-phenyl)-ethyl]-1H-pyrrolo[2,3-b]pyridine]
change in vivo at 50 mg/kg [2]: -50.4%

SC1.5 [1]: 1.1 µM
SMILES: Clc1ccc(C(CC2CCCC2)c2cc3cccnc3[nH]2)cc1Cl (stereo not drawn) [Example 139, 2-[2-Cyclopentyl-1-(3,4-dichloro-phenyl)-ethyl]-1H-pyrrolo[2,3-b]pyridine]
change in vivo at 50 mg/kg [2]: 25.4%
